Results published in BindingDB's records for doi:10.1016/j.ejmech.2021.113895 (University of Pisa, 2021).

Assay: Inhibition of recombinant full length human His-tagged PDK1 expressed in Baculovirus expression system in presence of ATP measured by […]

Structure (SMILES)	IC50
Cc1ccc(C(=O)NCC(=O)Nc2ccc3c(c2)/C(=C/c2cnc[nH]2)C(=O)N3)c(=O)n1Cc1ccc(F)c(F)c1	103 nM
Cc1c(Br)cc(C(=O)NCC(=O)Nc2ccc3c(c2)/C(=C/c2cnc[nH]2)C(=O)N3)c(=O)n1Cc1ccc(F)c(F)c1	134 nM
O=C(CCNC(=O)c1cccn(Cc2ccc(F)c(F)c2)c1=O)Nc1ccc2c(c1)/C(=C/c1cnc[nH]1)C(=O)N2 [US10351548, Compound DD21]	103 nM
Cc1ccc(C(=O)N[C@@H](C(=O)Nc2ccc3c(c2)/C(=C/c2cnc[nH]2)C(=O)N3)c2ccccc2)c(=O)n1Cc1ccc(F)c(F)c1	148 nM
Cc1c(Br)cc(C(=O)N[C@@H](C(=O)Nc2ccc3c(c2)/C(=C/c2cnc[nH]2)C(=O)N3)c2ccccc2)c(=O)n1Cc1ccc(F)c(F)c1	475 nM
O=C(CCNC(=O)c1cccn(Cc2ccc(F)c(F)c2)c1=O)Nc1ccc2c(c1)/C(=C/c1ncc[nH]1)C(=O)N2	455 nM
O=C(CCNC(=O)c1cccn(Cc2ccc(F)c(F)c2)c1=O)Nc1ccc2c(c1)C(=Cc1cccs1)C(=O)N2	1340 nM

Other lines, results leading:

IC50	Structure (SMILES)
5880 nM	O=C(CCCNC(=O)c1cccn(Cc2ccc(F)c(F)c2)c1=O)Nc1ccc2c(c1)C(=Cc1cccs1)C(=O)N2 [US10351548, Compound DF9]
245 nM	O=C(CCCNC(=O)c1cccn(Cc2ccc(F)c(F)c2)c1=O)Nc1ccc2c(c1)/C(=C/c1cnc[nH]1)C(=O)N2 [US10351548, Compound DF8]
